Test results from patent publication US10765116B2, “2-[3-(alkylsulfonyl)-2H-indazol-2-yl]-3H-imidazo[4,5-B]pyridine derivatives and similar compounds as pesticides” (BAYER CROPSCIENCE AKTIENGESELLSCHAFT, priority 2016, dated 2020).

What was measured:
Format in all cases: in vivo
Lucilia cuprina = Lucilia cuprina test; details: application rate 100 ppm, L1 larvae, minced horsemeat, after 2 days
Procedure: Solvent: dimethyl sulfoxide To produce a suitable active ingredient formulation, 10 mg of active ingredient are mixed with 0.5 ml of dimethyl sulfoxide, and the concentrate is diluted with water to the desired concentration. About 20 L1 larvae of the Australian sheep blowfly (Lucilia cuprina) are transferred into a test vessel containing minced horsemeat and the active ingredient formulation of the desired concentration. After 2 days, the kill in % is determined. 100% means that all the larvae have been killed; 0% means that no larvae have been killed.

Myzus persicae [1] = assay: Myzus persicae oral test; details: 120 h, mixed population of green peach aphids, after 5 days, read-out: efficacy; for pest or weed control at 4 ppm: application rate 4 ppm; for pest or weed control at 20 ppm: application rate 20 ppm
Procedure: Solvent: 100 parts by weight of acetone To produce a suitable active ingredient formulation, 1 part by weight of active ingredient is dissolved with the stated parts by weight of solvent and made up to the desired concentration with water. 50 μl of the active ingredient formulation are transferred into microtitre plates and made up to a final volume of 200 μl with 150 μl of IPL41 insect medium (33%+15% sugar). Subsequently, the plates are sealed with parafilm, which a mixed population of green peach aphids (Myzus persicae) within a second microtitre plate is able to puncture and imbibe the solution through it. After 5 days, the efficacy in % is determined. 100% means that all the aphids have been killed; 0% means that no aphids have been killed.

Spodoptera frugiperda = Spodoptera frugiperda spray test; details: application rate 100 g/ha, maize leaf discs, caterpillars, after 7 days
Procedure: (§1) Solvent: 78.0 parts by weight of acetone • • 1.5 parts by weight of dimethylformamide Emulsifier: alkylaryl polyglycol ether To produce a suitable active ingredient formulation, 1 part by weight of active ingredient is dissolved with the specified parts by weight of solvent and made up to the desired concentration with water containing an emulsifier concentration of 1000 ppm. To produce further test concentrations, the formulation is diluted with emulsifier-containing water. Leaf discs of maize (Zea mays) are sprayed with an active ingredient formulation of the desired concentration and, after drying, populated with caterpillars of the armyworm (Spodoptera frugiperda). After 7 days, the efficacy in % is determined. 100% means that all the caterpillars have been killed; 0% means that no caterpillar has been killed.

Phaedon cochleariae = Phaedon cochleariae spray test; details: application rate 100 g/ha, Chinese cabbage leaf discs, larvae, after 7 days
Procedure: as §1, with “water. Discs” for “water. Leaf discs”, “of Chinese cabbage leaves (Brassica pekinensis)” for “of maize (Zea mays)”, “with larvae” for “with caterpillars”, “the mustard beetle (Phaedon cochleariae).” for “the armyworm (Spodoptera frugiperda).”, “the beetle larvae” for “the caterpillars”, “no beetle larvae have” for “no caterpillar has”

Ctenocephalides felis [2] = assay: Ctenocephalides felis in vitro contact test with adult cat fleas; details: application rate 5 μg/cm^2 (=500 g/ha), coated glass tube, after 48 h
Procedure: For the coating of the test tubes, 9 mg of active ingredient are first dissolved in 1 ml of acetone p.a. and then diluted to the desired concentration with acetone p.a. 250 μl of the solution are distributed homogeneously on the inner walls and the base of a 25 ml glass tube by turning and rocking on an orbital shaker (rocking rotation at 30 rpm for 2 h). With 900 ppm of active ingredient solution and internal surface area 44.7 cm^2, given homogeneous distribution, an area-based dose of 5 μg/cm^2 is achieved. After the solvent has evaporated off, the glass tubes are populated with 5-10 adult cat fleas (Ctenocephalides felis), sealed with a perforated plastic lid and incubated in a horizontal position at room temperature and ambient humidity. After 48 h, efficacy is determined. To this end, the tubes are stood upright and the fleas are knocked to the base of the tube. Fleas which remain motionless at the base or move in an uncoordinated manner are considered to be dead or moribund. […] 100% efficacy means that all the fleas were dead or moribund. 0% efficacy means that no fleas were harmed.

Ctenocephalides felis [3] = assay: Ctenocephalides felis oral test; details: application rate 100 ppm in citrated cattle blood, adult cat fleas, after 2 days
Procedure: Solvent: dimethyl sulfoxide To produce a suitable active ingredient formulation, 10 mg of active ingredient are mixed with 0.5 ml of dimethyl sulfoxide. Dilution with citrated cattle blood gives the desired concentration. About 20 unfed adult cat fleas (Ctenocephalides felis) are placed into a chamber which is closed at the top and bottom with gauze. A metal cylinder whose bottom end is closed with parafilm is placed onto the chamber. The cylinder contains the blood/active ingredient formulation, which can be imbibed by the fleas through the parafilm membrane. After 2 days, the kill in % is determined. 100% means that all of the fleas have been killed; 0% means that none of the fleas have been killed.

Myzus persicae [4] = assay: Myzus persicae spray test; details: application rate 100 g/ha, Chinese cabbage leaf discs, all stages, after 5 days
Procedure: Solvent: 78 parts by weight of acetone • • 1.5 parts by weight of dimethylformamide Emulsifier: alkylaryl polyglycol ether To produce a suitable active ingredient formulation, 1 part by weight of active ingredient is dissolved with the specified parts by weight of solvent and made up to the desired concentration with water containing an emulsifier concentration of 1000 ppm. To produce further test concentrations, the formulation is diluted with emulsifier-containing water. Discs of Chinese cabbage leaves (Brassica pekinensis) infested by all stages of the green peach aphid (Myzus persicae) are sprayed with an active ingredient formulation of the desired concentration. After 5 days, the efficacy in % is determined. 100% means that all the aphids have been killed; 0% means that no aphids have been killed.

Musca domestica = Musca domestica test; details: application rate 100 ppm, adult houseflies, after 2 days
Procedure: Solvent: dimethyl sulfoxide
To produce a suitable active ingredient formulation, 10 mg of active ingredient are mixed with 0.5 ml of dimethyl sulfoxide, and the concentrate is diluted with water to the desired concentration.
Vessels containing a sponge treated with sugar solution and the active ingredient formulation of the desired concentration are populated with 10 adult houseflies (Musca domestica).
After 2 days, the kill in % is determined. 100% means that all of the flies have been killed; 0% means that none of the flies have been killed.

Rhipicephalus sanguineus = Rhipicephalus sanguineus in vitro contact test with adult brown dog ticks; details: application rate 5 μg/cm^2 (=500 g/ha), coated glass tube, after 48 h
Procedure: For the coating of the test tubes, 9 mg of active ingredient are first dissolved in 1 ml of acetone p.a. and then diluted to the desired concentration with acetone p.a. 250 μl of the solution are distributed homogeneously on the inner walls and the base of a 25 ml glass tube by turning and rocking on an orbital shaker (rocking rotation at 30 rpm for 2 h). With 900 ppm of active ingredient solution and internal surface area 44.7 cm^2, given homogeneous distribution, an area-based dose of 5 μg/cm^2 is achieved. After the solvent has evaporated off, the tubes are populated with 5-10 adult dog ticks (Rhipicephalus sanguineus), sealed with a perforated plastic lid and incubated in a horizontal position in the dark at room temperature and ambient humidity. After 48 h, efficacy is determined. To this end, the ticks are knocked to the base of the tube and incubated on a hotplate at 45-50° C. for not more than 5 min. Ticks which remain motionless on the base or move in such an uncoordinated manner that they are unable to deliberately avoid the heat by climbing upwards are considered to be dead or moribund. […] An efficacy of 100% means that all the ticks were dead or moribund. 0% efficacy means that none of the ticks were harmed.

With `CCS(=O)(=O)c1c2ccc(Cl)cc2nn1-c1nc2cc(C(F)(F)F)cnc2n1C` [Example I-1, 2-[6-Chloro-3-(ethylsulfonyl)-2H-indazol-2-yl]-3-methyl-6-(trifluoromethyl)-3H-imidazo[4,5-b]pyridine] the “efficacy (kill)” value (Lucilia cuprina) was 100%, the pest or weed control at 4 ppm (Myzus persicae [1]) was 90% and the efficacy (Spodoptera frugiperda) was 100%. For the same molecule, the efficacy (Phaedon cochleariae) was 100%.
In the case of `CCS(=O)(=O)c1c2cc(Cl)ccc2nn1-c1nc2cc(C(F)(F)F)cnc2n1C` [Example I-2, 2-[5-Chloro-3-(ethylsulfonyl)-2H-indazol-2-yl]-3-methyl-6-(trifluoromethyl)-3H-imidazo[4,5-b]pyridine], the “efficacy (kill)” value (Lucilia cuprina) is reported as 100%, the pest or weed control at 4 ppm (Myzus persicae [1]) is reported as 100% and the pest or weed control at 20 ppm (Myzus persicae [1]) is reported as 100%. The efficacy (Spodoptera frugiperda) was 100%, the efficacy (Ctenocephalides felis [2]) was 100% and the “efficacy (kill)” value (Ctenocephalides felis [3]) was 80%. It also gave an efficacy (Phaedon cochleariae) of 100%.
For `CCS(=O)(=O)c1c2ccccc2nn1-c1nc2cc(C(F)(F)F)cnc2n1C` [Example I-3], the “efficacy (kill)” value (Lucilia cuprina) was 100%, the pest or weed control at 4 ppm (Myzus persicae [1]) was 90% and the efficacy (Myzus persicae [4]) was 100%. The efficacy (Phaedon cochleariae) was 100%.
In the case of `CCS(=O)(=O)c1c2cccc(Cl)c2nn1-c1nc2cc(C(F)(F)F)cnc2n1C` [Example I-4], the pest or weed control at 4 ppm (Myzus persicae [1]) is reported as 90% and the efficacy (Phaedon cochleariae) is reported as 100%.
In the case of `CCS(=O)(=O)c1c2cc(C(F)(F)F)ccc2nn1-c1nc2cc(C(F)(F)F)cnc2n1C` [Example I-5], the “efficacy (kill)” value (Lucilia cuprina) is reported as 100%, the pest or weed control at 4 ppm (Myzus persicae [1]) is reported as 100% and the efficacy (Spodoptera frugiperda) is reported as 100%. For the same molecule, the efficacy (Ctenocephalides felis [2]) was 100% and the efficacy (Phaedon cochleariae) was 100%.
With `CCS(=O)(=O)c1c2ccc(C(F)(F)F)cc2nn1-c1nc2cc(C(F)(F)F)cnc2n1C` [Example I-6] the “efficacy (kill)” value (Lucilia cuprina) was 100%, the pest or weed control at 4 ppm (Myzus persicae [1]) was 100% and the pest or weed control at 20 ppm (Myzus persicae [1]) was 100%. For the same molecule, the efficacy (Spodoptera frugiperda) was 100%, the efficacy (Ctenocephalides felis [2]) was 100% and the efficacy (Phaedon cochleariae) was 100%. For the same molecule, the “efficacy (kill)” value (Musca domestica) was 90%.
With `CCS(=O)(=O)c1c2c(nn1-c1nc3cc(C(F)(F)F)cnc3n1C)CCCC2` [Example I-10, 2-[3-(Ethylsulfonyl)-4,5,6,7-tetrahydro-2H-indazol-2-yl]-3-methyl-6-(trifluoromethyl)-3H-imidazo[4,5-b]pyridine] the “efficacy (kill)” value (Lucilia cuprina) was 100%, the pest or weed control at 4 ppm (Myzus persicae [1]) was 100% and the efficacy (Ctenocephalides felis [2]) was 100%. It also gave an efficacy (Myzus persicae [4]) of 90% and an efficacy (Rhipicephalus sanguineus) of 100%.
`CCS(=O)(=O)c1c2c(nn1-c1nc3cc(C(F)(F)F)cnc3n1C)CC(C)(C)CC2` [Example I-11] gave a pest or weed control at 4 ppm (Myzus persicae [1]) of 100% and an efficacy (Myzus persicae [4]) of 90%.
In the case of `CCS(=O)(=O)c1c2ccc(C(F)(F)F)cc2nn1-c1nc2cc(C(F)(F)F)ncc2n1C` [Example I-12], the pest or weed control at 4 ppm (Myzus persicae [1]) is reported as 100%, the efficacy (Spodoptera frugiperda) is reported as 100% and the efficacy (Phaedon cochleariae) is reported as 100%.
